Test results: patent publication US5981517A, “Androstene derivatives” (priority 1997, dated 1999)

What was measured:
physchem = type: physicochemical
Procedure: (§1) A Whatman C-18 column (4.6 mm×108 mm) was connected to a Spectra-Physics component system consisting of a SP 8810 precision isocratic pump, Rheodyne 7125 injector (20 μL injection volume), SP 8450 UV/VIS variable wavelength detector (230 nm), and SP 4290 integrator. The system was operated at ambient temperature. The mobile phase consisted of acetonitrile, acetic acid and water (60:0.1:40). At a flow rate of 1.0 mL/minute, the retention times for the test compounds were 4.74 minutes for Compound A, 5.84 minutes for Compound B, 6.93 minutes for Compound C, and 5.72 minutes for Compound D.
(§2) HPLC peak area and peak height were used as a measure of the concentration of the test compounds and plotted against time to evaluate the disappearance rates of the compounds. The stability was determined by measuring the pseudo-first order rate constant (kobs in min^-1) or half-life (t1/2 in min) of disappearance of the test compound in buffer. […].
The stabilities of test compounds A, B, C, and D, were tested in buffer solutions in the pH range of 4.0 to 9.0. A 0.1 mL portion of each compound at a concentration of 1 mM was mixed with 10 mL phosphate buffer (made by combining 0.05 M of NaH2 PO4 and 0.05 M of Na2 HPO4 with 0.05 M of NaCl) to give a final concentration of 0.01 mM. The mixtures were incubated at 37° C., and samples were taken and injected in the HPLC system at appropriate time intervals. pH profiles of each test compound are shown in TABLE III below. […]

Stability in rat blood = type: in vitro ADME; conditions: rat, blood
Procedure: as §1, §2
(§3) A 0.2 mL aliquot of stock solution (1 mM) of each of the test compounds A, B, C, and D, was added to 2 mL of each biological media (whole heparinized rat blood, 20% rat liver homogenate, and 6-volume diluted lung homogenate in isotonic buffer of pH 7.40 made by combining 0.05 M of Na2 HPO4 and 0.05 M of NaH2 PO4 with 0.05 M of NaCl), which was kept in a 37° C. water bath, to obtain a final concentration of 0.1 mM in each biological medium. Samples of 0.1 mL were taken at appropriate time intervals for 2 hours (at 0, 3, 5, 10, 20, 40, 60, 90 and 120 minutes) and mixed with 0.2 mL of acetonitrile containing 5% DMSO. Each mixture was centrifuged and the supernatant was injected in the HPLC.

[1] = Stability in lung homogenate; type: in vitro ADME; conditions: rat, lung homogenate
Procedure: as §1, §2, §3

[2] = Stability in liver homogenate; type: in vitro ADME, rat; conditions: rat, liver homogenate
Procedure: as §1, §2, §3

[3] = tested on: forearm of a human volunteer; assay: Human vasoconstriction test; type: in vivo; set-up: key: 0 = normal skin, 4 = very intense pallor; conditions: 10 mM
Procedure: Test compounds (10 mM) were dissolved in ethanol/propylene glycol (9/1) solution, and 50 μL of the mixtures were applied to circular patches, 8 mm in diameter. After ethanol evaporation, the patches were applied to the forearm of a human volunteer, and covered with a water impervious film for 3 hours. The intensity of vasoconstriction was judged 1, 8, 17 and 24 hours after the patches were removed.
The grading scale for the vasoconstriction activity was as follows: 0, normal skin; 1, slight pallor of indistinct outline; 2, pallor with at least two corners outlined; 3, even pallor with a clear outline of the application sites; 4, very intense pallor.

[4] = Stability in human plasma; type: in vitro ADME; conditions: human, plasma
Procedure: (§4) A Waters NOVA-PAK phenyl column was connected to a Spectra-Physics component system consisting of a SP 8810 precision isocratic pump, a Rheodyne 7125 injector (injection volume 20 μL), an SP 8450 UV/VIS variable wavelength detector (operated at 254 nm) and a SP 4270 integrator. […]. The retention times of compound of the invention J and its metabolities L and M were 8.64, 2.70 and 2.45 minutes, respectively. The retention times of compound of the invention I and its metabolites N and 0 were 5.84, 2.70 and 1.81 minutes, respectively. The retention time of cortienic acid was 1.00 minute.
(§5) Freshly collected human or rat plasma was used. An aliquot of 10 mM test compound in ethanol solution was added to prewarmed (37° C.) plasma to yield a final concentration of 100 μM. At appropriate time intervals, samples (0.1 mL) were removed and mixed with 0.2 mL of 5% dimethylsulfoxide/acetonitrile solution. Mixtures were centrifuged and supernatants were analyzed by HPLC. The pseudo-first order rate constant of the disappearance of compound in the biological media was determined by linear regression analysis from the plot of log peak area and peak height versus time.
(§6) Stability was evaluated by the pseudo first-order rate constant (k, hr^-1) and half-life (t1/2, hr) of the disappearance of the test compound in the media.

Stability in rat plasma = type: in vitro ADME; conditions: rat, plasma
Procedure: as §4, §5, §6

[5] = tested on: forearm of a human volunteer; assay: Further human vasoconstriction testing, Method 2; type: in vivo; set-up: key: +: "positive" (pallor could be observed); -: "negative" (pallor could not be detected)
Procedure: The mixtures, in 20 μL amounts, were applied to circular patches (1/4 inch diameter). The patches were applied to the forearm of a human volunteer, and covered with a water impervious film for 3 hr. Vasoconstriction activity was judged by the appearance of pallor at various time points after the patches were removed. Tests were performed on the same person and the results were obtained from 2-4 observations.
In TABLE XIV above, "-" means a negative result was obtained. In other tables herein, "-" means not tested.
In TABLE XIV above, the results of a simpler method of judging vasoconstriction activity was used in which only "positive" (pallor could be observed) or "negative" (pallor could not be detected) results were recorded.

[6] = aqueous phosphate buffer, pH 4.5
[7] = aqueous phosphate buffer, pH 6.56
[8] = aqueous phosphate buffer, pH 7.4
[9] = aqueous phosphate buffer, pH 8.08

Row | Compound | half-life (physchem; [6]) | half-life (physchem; [7]) | half-life (physchem; [8]) | half-life (physchem; [9]) | half-life (physchem; aqueous phosphate buffer, pH 9) | half-life (physchem; buffer, pH 7.4) | half-life at 100 µM (Stability in rat blood) | half-life at 100 µM [1] | half-life at 100 µM [2] | Vasoconstriction activity ([3]; 1 hour after patch removal) | Vasoconstriction activity ([3]; 8 hours after patch removal) | Vasoconstriction activity ([3]; 17 hours after patch removal) | Vasoconstriction activity ([3]; 24 hours after patch removal) | Vasoconstriction activity ([5]; 4 Hours, 0.01 mM) | Vasoconstriction activity ([5]; 4 Hours, 0.05 mM) | Vasoconstriction activity ([5]; 4 Hours, 0.1 mM) | Vasoconstriction activity ([5]; 4 Hours, 0.5 mM) | Vasoconstriction activity ([5]; 4 Hours, 1 mM) | Vasoconstriction activity ([5]; 4 Hours, 5 mM) | Vasoconstriction activity ([5]; 8 Hours, 0.01 mM) | also measured
1 | COC(=O)[C@@]1(OC(=O)C(Cl)Cl)CC[C@H]2[C@@H]3CCC4=CC(=O)C=C[C@]4(C)[C@H]3[C@@H](O)C[C@@]21C [Compound A, Methyl 17α-dichloroacetoxy-11β-hydroxyandrosta-1,4-dien-3-one-17β-carboxylate] | > 48 h | 19.1 h | 3.37 h | 0.35 h | 0.0708 h | 3.37 h | 0.448 h | 0.718 h | 0.0617 h | 2 | 4 | 4 | 4 |  |  |  |  |  |  |  | 
2 | C[C@]12C=CC(=O)C=C1CC[C@@H]1[C@@H]2[C@@H](O)C[C@@]2(C)[C@H]1CC[C@]2(OC(=O)C(Cl)Cl)C(=O)OCCl [Compound D, Chloromethyl 17α-dichloroacetoxy-11β-hydroxyandrosta-1,4-dien-3-one-17β-carboxylate] | 14 h | 0.822 h | 0.232 h | 0.0483 h | 0.0178 h | 0.232 h | 0.193 h | 0.873 h | 0.127 h | 3 | 4 | 3 | 2 |  |  |  |  |  |  |  | 
3 | COC(=O)[C@@]1(OC(=O)C(Cl)Cl)[C@H](C)C[C@H]2[C@@H]3CCC4=CC(=O)C=C[C@]4(C)[C@@]3(F)[C@@H](O)C[C@@]21C [Compound I, methyl 17α-dichloroacetoxy-9α-fluoro-11β-hydroxy-16α-methylandrosta-1,4-dien-3-one-17β-carboxylate] |  |  |  |  |  |  |  |  |  |  |  |  |  | - | - | + | + | + | + | - | half-life at 100 µM [4]: 10.9 h; half-life at 100 µM (Stability in rat plasma): 9.88 h; Vasoconstriction activity ([5]; 8 Hours, 0.05 mM): +; Vasoconstriction activity ([5]; 8 Hours, 0.1 mM): +; Vasoconstriction activity ([5]; 8 Hours, 0.5 mM): +; Vasoconstriction activity ([5]; 8 Hours, 1 mM): +; Vasoconstriction activity ([5]; 8 Hours, 5 mM): +; Vasoconstriction activity ([5]; 10-22 hours, 0.01 mM): -; Vasoconstriction activity ([5]; 10-22 hours, 0.05 mM): -; Vasoconstriction activity ([5]; 10-22 hours, 0.1 mM): +; Vasoconstriction activity ([5]; 10-22 hours, 0.5 mM): +; Vasoconstriction activity ([5]; 10-22 hours, 1 mM): +; Vasoconstriction activity ([5]; 10-22 hours, 5 mM): +; Vasoconstriction activity ([5]; 24 Hours, 0.01 mM): -; Vasoconstriction activity ([5]; 24 Hours, 0.05 mM): -; Vasoconstriction activity ([5]; 24 Hours, 0.1 mM): +; Vasoconstriction activity ([5]; 24 Hours, 0.5 mM): +; Vasoconstriction activity ([5]; 24 Hours, 1 mM): +; Vasoconstriction activity ([5]; 24 Hours, 5 mM): +
4 | CCOC(=O)[C@@]1(OC(=O)C(Cl)Cl)[C@H](C)C[C@H]2[C@@H]3CCC4=CC(=O)C=C[C@]4(C)[C@@]3(F)[C@@H](O)C[C@@]21C [J, ethyl 17α-dichloroacetoxy-9α-fluoro-11β-hydroxy-16α-methylandrosta-1,4-dien-3-one-17β-carboxylate] |  |  |  |  |  |  |  |  |  |  |  |  |  | - | - | - | - | + | + | - | half-life at 100 µM [4]: 40.1 h; half-life at 100 µM (Stability in rat plasma): 40.7 h; Vasoconstriction activity ([5]; 8 Hours, 0.05 mM): -; Vasoconstriction activity ([5]; 8 Hours, 0.1 mM): -; Vasoconstriction activity ([5]; 8 Hours, 0.5 mM): +; Vasoconstriction activity ([5]; 8 Hours, 1 mM): +; Vasoconstriction activity ([5]; 8 Hours, 5 mM): +; Vasoconstriction activity ([5]; 10-22 hours, 0.01 mM): -; Vasoconstriction activity ([5]; 10-22 hours, 0.05 mM): -; Vasoconstriction activity ([5]; 10-22 hours, 0.1 mM): -; Vasoconstriction activity ([5]; 10-22 hours, 0.5 mM): +; Vasoconstriction activity ([5]; 10-22 hours, 1 mM): +; Vasoconstriction activity ([5]; 10-22 hours, 5 mM): +; Vasoconstriction activity ([5]; 24 Hours, 0.01 mM): -; Vasoconstriction activity ([5]; 24 Hours, 0.05 mM): -; Vasoconstriction activity ([5]; 24 Hours, 0.1 mM): -; Vasoconstriction activity ([5]; 24 Hours, 0.5 mM): +; Vasoconstriction activity ([5]; 24 Hours, 1 mM): +; Vasoconstriction activity ([5]; 24 Hours, 5 mM): +
5 | CC(C)OC(=O)[C@@]1(OC(=O)C(Cl)Cl)CC[C@H]2[C@@H]3CCC4=CC(=O)C=C[C@]4(C)[C@H]3[C@@H](O)C[C@@]21C [Compound C, Isopropyl 17α-dichloroacetoxy-11β-hydroxyandrosta-1,4-dien-3-one-17β-carboxylate] | > 48 h | 11.3 h | 16.2 h | 2.08 h | 0.27 h | 11 h | 1.78 h | 2.84 h | 0.488 h | 3 | 4 | 3 | 2 |  |  |  |  |  |  |  | 
6 | CCCCC(=O)O[C@]1(C(=O)CO)[C@@H](C)C[C@H]2[C@@H]3CCC4=CC(=O)C=C[C@]4(C)[C@@]3(F)[C@@H](O)C[C@@]21C [Betamethasone 17-valerate, reference compound] |  |  |  |  |  |  |  |  |  |  |  |  |  | - | - | - | - | + | + | - | Vasoconstriction activity ([5]; 8 Hours, 0.05 mM): -; Vasoconstriction activity ([5]; 8 Hours, 0.1 mM): -; Vasoconstriction activity ([5]; 8 Hours, 0.5 mM): +; Vasoconstriction activity ([5]; 8 Hours, 1 mM): +; Vasoconstriction activity ([5]; 8 Hours, 5 mM): +; Vasoconstriction activity ([5]; 10-22 hours, 0.01 mM): -; Vasoconstriction activity ([5]; 10-22 hours, 0.05 mM): -; Vasoconstriction activity ([5]; 10-22 hours, 0.1 mM): -; Vasoconstriction activity ([5]; 10-22 hours, 0.5 mM): +; Vasoconstriction activity ([5]; 10-22 hours, 1 mM): +; Vasoconstriction activity ([5]; 10-22 hours, 5 mM): +; Vasoconstriction activity ([5]; 24 Hours, 0.01 mM): -; Vasoconstriction activity ([5]; 24 Hours, 0.05 mM): -; Vasoconstriction activity ([5]; 24 Hours, 0.1 mM): -; Vasoconstriction activity ([5]; 24 Hours, 0.5 mM): -; Vasoconstriction activity ([5]; 24 Hours, 1 mM): +; Vasoconstriction activity ([5]; 24 Hours, 5 mM): +
